In US8188074B2 (priority 2001, dated 2012):
Read-outs that look alike come from different tables or passages of the source.

Legend:
S. aureus = conditions: 10 μM, laser light (665 nm) 0.1 W
Experimental: (§2) Stock solutions of the photosensitisers were made up to 5 mM in dimethylsulfoxide (DMSO). The 5 mM stock was further diluted in DMSO to a working concentration of 1 mM. All photosensitisers were stored in foil covered vials at room temperature until required.
(§3) The microorganisms were grown until in the mid-logarithmic phase and then harvested and resuspended.
(§4) The log or stationary phase cells were collected by centrifugation and washed twice in 0.1 M potassium phosphate buffer (pH 7.0). Following washing, the cells were resuspended in the same buffer to an absorbance of 0.87 at 650 nm.
(§5) 25 ml of the prepared cell suspension was incubated with 0.25 mls of a 1 mM stock solution of photosensitiser (giving a final concentration of 10 μM) in a 250 ml sterile foil covered conical flask. The suspension was incubated for 30 minutes in the dark in a 37° C. shaking incubator at 250 rpm.
(§6) After incubation with 10 μM phenothiazinium compound, 10 ml of the bacterial culture was aseptically transferred to a sterile cell. This consisted of a sealed vial with a sealed capillary tube inserted, into which the optical fibre could be placed. […]
(§7) 50 ml of the illuminated and non-illuminated samples of the suspension were removed and diluted in 0.1 M pH 7.0 potassium phosphate buffer. […] Cell inactivation was then measured.

E. coli [1] = system: E. coli
E. coli [2] = assay: Photoinactivation of E. coli; format: cell-based; conditions: for log change in CFU/ml / percentage cell survival / log change CFU/ml: E. coli; for log change CFU/ml: laser light
Experimental: (§1) Cell inactivation was then measured.

C. albicans = assay: Photoinactivation of C. albicans; format: cell-based, Candida albicans; conditions: 10 μM; laser light at 0.1 W
Experimental: as §1

P. aeruginosa = assay: Photoinactivation of P. aeruginosa; conditions: 10 μM, laser light (665 nm) 0.1 W
Experimental: as §2, §3, §4, §5, §6, §7

[3] = Octanol-buffer partition coefficient
Excerpt: The octanol buffer partition coefficient (p) determines the lipophilicity of the drug.

[4] = system: RIF-1 murine fibrosarcoma cells; assay: Cellular uptake in RIF-1 cells; format: cell-based; conditions: 2 h incubation, solubilised in 2% SDS, fluorescence
[5] = patients after administration; cited from earlier work
[6] = 30 min with 10 μM, halogen lamp 60 minutes at 1.3 mW/cm^2
[7] = octanol-buffer partition coefficient

3,7-(tetra-n-butylamino)-phenothiazin-5-ium [Compound 2]
bacteria inactivated (S. aureus; 1 minute): ~99%
cell kill (S. aureus; 10 minutes): ~5 logs
growth of an E. coli culture in the dark compared to control, FIG. 11 (E. coli [1]; 10 μM in growth media, dark, 37° C., 6 hours, turbidity at 550 nm): greatest inhibition
growth of E. coli after addition of photosensitiser at 3 hours, in the dark, FIG. 12 (E. coli [1]; 10 μM, dark): continuing growth
growth of E. coli after addition of photosensitiser at 3 hours, in the light, FIG. 12 (E. coli [1]; 10 μM, light): complete elimination of growth
log change in CFU/ml of washed versus unwashed E. coli cells, FIG. 10 (E. coli [2]; 10 μM, washed twice, laser light (665 nm) 0.1 W for 4 minutes): little difference
log change in CFU/ml (E. coli [2]; [6]): 5.1 log10
percentage cell survival (E. coli [2]; [6]): 0.001%
log change in CFU/ml (E. coli [2]; 30 min with 10 μM, illuminated 15 minutes at 1.3 mW/cm^2): 4.59 log10 units
log change in CFU/ml (E. coli [2]; 30 min with 50 μM, illuminated 15 minutes at 1.3 mW/cm^2): 2.15 units
log change CFU/ml (E. coli [2]; 14 minute illumination at 0.1 W): 5.69 log
log change CFU/ml (E. coli [2]; 20 minute illumination at 0.1 W, number of CFU too small to be statistically reliable): ~8.5 units
antibacterial activity, E. coli resuspended in nutrient medium, FIG. 7 (E. coli [2]; nutrient medium, 10 μM, 60 minutes at 1.3 mW/cm^2): highest antibacterial activity
killing of Candida albicans in the light, FIG. 16 (C. albicans): readily destroyed
cell kill (P. aeruginosa; 2 minutes): greater than 99%
cell kill (P. aeruginosa; 10 minutes): ~4 logs

3-(N,N-diethanolamino)-7-(N,N-dipentylamino)-phenothiazin-5-ium iodide [Compound 28]
Log P [3]: +1.1

CCCCCCN(CCCCCC)c1ccc2nc3ccc(N(CCCCCC)CCCCCC)cc3[s+]c2c1.[Br-] [Compound 4]
log change in CFU/ml (E. coli [2]; [6]): 0.19 log10
percentage cell survival (E. coli [2]; [6]): 65.3%
Uptake at PDT LD50 [4]: 1.6 nmol/mg protein
Log P [3, 7]: +1.3

CCN(CC)c1ccc2nc3ccc(N(CC)CC)cc3[s+]c2c1.[Cl-] [Compound 6, ethylene blue, reference compound]
Uptake at PDT LD50 [4]: 2.9 nmol/mg protein
Log P [3, 7]: +0.2

CCCCN(CCCC)c1ccc2nc3ccc(N4CCOCC4)cc3[s+]c2c1.[I-] [Compound 24]
Log P [3, 7]: +1.0

Oc1cccc(-c2c3nc(c(-c4cccc(O)c4)c4ccc([nH]4)c(-c4cccc(O)c4)c4nc(c(-c5cccc(O)c5)c5ccc2[nH]5)CC4)C=C3)c1 [Foscan]
period of sensitivity to light [5]: approximately 15 days
